From ChEMBL document CHEMBL1201862, “PubChem BioAssay data set” (2004)
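Cultured in 96-well plates, cells were exposed to test compound for 48 hours across five concentrations. Here, GI50 denotes the concentration required for 50% inhibition of growth.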 Active and inactive are the calls of the source. Cut-off read from the data, not from the text of the source: active = GI50 up to about 1.1 µM and inactive = higher.

Tests used:
Test in all cases: NCI anticancer screen, dose series, 48 h
[1] = tested on: HCT-116
[2] = tested on: M14
[3] = tested on: MDA-MB-435
[4] = tested on: NCI-H226
[5] = tested on: NCI-H460
[6] = tested on: NCI/ADR-RES
[7] = tested on: OVCAR-4
[8] = tested on: OVCAR-5
[9] = tested on: RXF 393
[10] = tested on: SF-539
[11] = tested on: SK-MEL-28
[12] = tested on: SK-MEL-2
[13] = tested on: SN12C
[14] = tested on: SNB-19
[15] = tested on: SW-620
[16] = tested on: UACC-257
[17] = tested on: UO-31
[18] = tested on: HT-29
[19] = tested on: RPMI-8226
[20] = tested on: MDA-MB-231

Measured: GI50

CNC(=O)ON(C(C)=O)C(=O)NC [CARACEMIDE]
inactive: [1] 45 µM | [2] 9.55 µM | [3] 15.3 µM | [4] 95.1 µM | [5] 78.7 µM | [6] 67.1 µM | [7] 63.8 µM | [8] 126 µM | [9] 34.3 µM | [10] 64.4 µM | [11] 69.5 µM | [12] 26 µM | [13] 58.9 µM | [14] 157 µM | [15] 52 µM | [16] 69.5 µM | [17] 54.3 µM

O=C(OC1CCC2OOC1O2)c1ccc([N+](=O)[O-])cc1 (stereo not drawn)
inactive: [1] > 100 µM | [18] > 100 µM | [2] > 100 µM | [4] > 100 µM | [5] > 100 µM | [7] > 100 µM | [8] > 100 µM | [19] > 100 µM | [9] > 100 µM | [10] > 100 µM | [11] > 100 µM | [12] > 100 µM | [13] > 100 µM | [14] > 100 µM | [15] > 100 µM | [16] > 100 µM | [17] > 100 µM

C[n+]1c2ccccc2c(/C=N\NS(=O)(=O)c2ccc(O)c(C(=O)O)c2)c2ccccc21
inactive: [1] 32.6 µM | [18] 35.3 µM | [2] 64.1 µM | [4] 26.1 µM | [5] 36.2 µM | [7] > 100 µM | [8] > 100 µM | [19] 40.6 µM | [9] 32.7 µM | [10] 63.4 µM | [11] 61.7 µM | [12] 63.5 µM | [13] 67.8 µM | [14] 67.9 µM | [15] 41.1 µM | [16] > 10 µM | [17] 29.2 µM

CC12CC(c3ccccc3O1)C(C(=O)Nc1ccc(F)cc1)C(=O)N2 (stereo not drawn)
inactive: [1] > 100 µM | [18] 89.9 µM | [2] > 100 µM | [3] > 100 µM | [5] 89.7 µM | [6] 47.4 µM | [7] 51.9 µM | [8] > 100 µM | [19] 40.3 µM | [10] > 100 µM | [11] > 100 µM | [12] > 100 µM | [14] > 100 µM | [15] > 100 µM | [16] 81.8 µM | [17] 65.9 µM

O=C1/C(=N\O)S(=O)(=O)c2ccccc21
inactive: [1] > 100 µM | [18] 92.7 µM | [2] > 100 µM | [4] > 100 µM | [5] > 100 µM | [7] > 100 µM | [8] > 100 µM | [19] > 100 µM | [9] > 100 µM | [10] > 100 µM | [12] > 100 µM | [13] > 100 µM | [14] > 100 µM | [15] > 100 µM | [16] > 100 µM | [17] > 100 µM

O=C(O)CCCC#CCCCC(=O)O
inactive: [1] > 100 µM | [18] > 100 µM | [2] > 100 µM | [3] > 100 µM | [5] > 100 µM | [6] > 100 µM | [7] > 100 µM | [8] > 100 µM | [9] > 100 µM | [10] > 100 µM | [11] > 100 µM | [12] > 100 µM | [13] > 100 µM | [14] > 100 µM | [16] > 100 µM | [17] > 100 µM

COc1ccccc1/C=C(\C#N)c1ccccc1
inactive: [1] 29.1 µM | [18] 29.9 µM | [2] 32.8 µM | [4] 3.13 µM | [5] 23.8 µM | [7] 30.2 µM | [8] > 100 µM | [19] 20.8 µM | [9] 27.7 µM | [10] 34.8 µM | [11] 45.5 µM | [12] 27.2 µM | [13] 49.1 µM | [15] 23.7 µM | [16] 31.1 µM | [17] 28.8 µM

N=S(=O)(c1ccccc1)c1ccccc1[N+](=O)[O-] (stereo not drawn)
inactive: [1] > 100 µM | [18] > 100 µM | [2] > 100 µM | [4] > 100 µM | [5] > 100 µM | [7] > 100 µM | [8] > 100 µM | [19] > 100 µM | [9] > 100 µM | [10] > 100 µM | [12] 68.5 µM | [13] > 100 µM | [14] > 100 µM | [15] > 100 µM | [16] > 100 µM | [17] > 100 µM

O=S(=O)(c1ccccc1)n1cnc(CCc2ccccc2)n1
inactive: [1] > 100 µM | [18] > 100 µM | [2] > 100 µM | [4] > 100 µM | [5] > 100 µM | [7] > 100 µM | [8] > 100 µM | [19] > 100 µM | [9] > 100 µM | [10] > 100 µM | [11] > 100 µM | [12] > 100 µM | [13] > 100 µM | [15] > 100 µM | [16] > 100 µM | [17] > 100 µM

Cc1ccc(/C=C2\CCCCCC2=O)cc1
inactive: [1] > 100 µM | [18] > 100 µM | [2] > 100 µM | [20] > 100 µM | [3] > 100 µM | [4] > 100 µM | [5] > 100 µM | [7] > 100 µM | [8] > 100 µM | [19] > 100 µM | [11] > 100 µM | [12] > 100 µM | [13] > 100 µM | [14] > 100 µM | [15] > 100 µM | [16] > 100 µM | [17] > 100 µM

COC1=CC(=O)c2c(cc3c(c2O)-c2c(OC)cc4cc5c(c(O)c4c2OC(=O)CC(C)(O)C3)C(=O)CC(C)(O)C5)C1=O (stereo not drawn)
inactive: [1] 2.45 µM | [18] 1.96 µM | [2] 1.25 µM | [4] 1.84 µM | [5] 1.31 µM | [7] 3.15 µM | [8] 2.14 µM | [19] 1.32 µM | [9] 2.05 µM | [10] 1.57 µM | [11] 1.32 µM | [12] 1.28 µM | [13] 1.8 µM | [14] 1.71 µM | [15] 2.37 µM | [16] 1.76 µM | [17] 1.73 µM

COC(=O)C(=O)C(C#N)c1c(Cl)cccc1Cl (stereo not drawn)
inactive: [1] > 100 µM | [18] > 100 µM | [2] > 100 µM | [4] > 100 µM | [5] > 100 µM | [7] > 100 µM | [8] > 100 µM | [19] > 100 µM | [9] > 100 µM | [10] > 100 µM | [11] > 100 µM | [12] > 100 µM | [13] > 100 µM | [14] > 100 µM | [15] > 100 µM | [16] > 100 µM | [17] > 100 µM
